Key:
Test in all cases: Microbiological challenge testing in BPW broth, graded subculture counts
Assay type in all cases: cell-based
[1] = tested on: Pseudomonas aeruginosa Wild type; details: P. aeruginosa
Method in brief: (§1)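 Challenge substrates of BPW plus 1% dextrose containing the test material (w/v) or broth alone were inoculated to 10^5–10^6 CFU/mL. Bacteria had been precultured in dextrose TSB at 35 °C for at least 96 h. CFU/mL came from plate count × dilution factor on PCA after ≥48 h at 35 °C.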

[2] = tested on: Escherichia coli ATCC 25922; details: E. Coli
Method in brief: as §1

[3] = tested on: Proteus vulgaris Wild type
Method in brief: as §1

[4] = tested on: Bacillus subtilis Wild type
Method in brief: as §1

[5] = tested on: Staphylococcus aureus ATCC 25923; details: S. aureus
Method in brief: as §1

[6] = tested on: Aeromonas sp. Wild type
Method in brief: as §1

SMILES: CC1(C)C(O)C(C)(C)C1O (stereo not drawn) [TMCBD, 2,2,4,4-tetramethyl-1,3-cyclobutanediol]
- Grade ([1]; 0.5% (wt/vol), 3 day): 5 (More than 10,000 colonies estimated (thus more than 100,000 CFU/mL))
- Grade ([1]; 0.5% (wt/vol), 13 day): 5 (More than 10,000 colonies estimated (thus more than 100,000 CFU/mL))
- Grade ([1]; 0.5% (wt/vol), 30 day): 5 (More than 10,000 colonies estimated (thus more than 100,000 CFU/mL))
- Grade ([1]; 1.25% (wt/vol), 3 day): 4 (1000 to 10,000 colonies countable (thus 10,000 CFU/mL to 100,000 CFU/mL))
- Grade ([1]; 1.25% (wt/vol), 13 day): 4 (1000 to 10,000 colonies countable (thus 10,000 CFU/mL to 100,000 CFU/mL))
- Grade ([1]; 1.25% (wt/vol), 30 day): 4 (1000 to 10,000 colonies countable (thus 10,000 CFU/mL to 100,000 CFU/mL))
- Grade ([1]; 2.5% (wt/vol), 3 day): 4 (1000 to 10,000 colonies countable (thus 10,000 CFU/mL to 100,000 CFU/mL))
- Grade ([1]; 2.5% (wt/vol), 13 day): 3 (100 to 1000 colonies (thus 1000 to 10,000 CFU/mL))
- Grade ([1]; 2.5% (wt/vol), 30 day): 4 (1000 to 10,000 colonies countable (thus 10,000 CFU/mL to 100,000 CFU/mL))
- Grade ([1]; 5.0% (wt/vol), 3 day): 3 (100 to 1000 colonies (thus 1000 to 10,000 CFU/mL))
- Grade ([1]; 5.0% (wt/vol), 13 day): 1 (0 to 51 colonies counted (thus 10 to 510 CFU/mL based on 0.1-mL sample))
- Grade ([1]; 5.0% (wt/vol), 30 day): 0
- Grade ([2]; 0.5% (wt/vol), 3 day): 5 (More than 10,000 colonies estimated (thus more than 100,000 CFU/mL))
- Grade ([2]; 0.5% (wt/vol), 14 day): 5 (More than 10,000 colonies estimated (thus more than 100,000 CFU/mL))
- Grade ([2]; 0.5% (wt/vol), 30 day): 5 (More than 10,000 colonies estimated (thus more than 100,000 CFU/mL))
- Grade ([2]; 1.25% (wt/vol), 3 day): 4 (1000 to 10,000 colonies countable (thus 10,000 CFU/mL to 100,000 CFU/mL))
- Grade ([2]; 1.25% (wt/vol), 14 day): 4 (1000 to 10,000 colonies countable (thus 10,000 CFU/mL to 100,000 CFU/mL))
- Grade ([2]; 1.25% (wt/vol), 30 day): 4 (1000 to 10,000 colonies countable (thus 10,000 CFU/mL to 100,000 CFU/mL))
- Grade ([2]; 2.5% (wt/vol), 3 day): 4 (1000 to 10,000 colonies countable (thus 10,000 CFU/mL to 100,000 CFU/mL))
- Grade ([2]; 2.5% (wt/vol), 14 day): 4 (1000 to 10,000 colonies countable (thus 10,000 CFU/mL to 100,000 CFU/mL))
- Grade ([2]; 2.5% (wt/vol), 30 day): 4 (1000 to 10,000 colonies countable (thus 10,000 CFU/mL to 100,000 CFU/mL))
- Grade ([2]; 5.0% (wt/vol), 3 day): 0
- Grade ([2]; 5.0% (wt/vol), 14 day): 0
- Grade ([2]; 5.0% (wt/vol), 30 day): 0
- P. vulgaris growth grade, 3 day ([3]; 0.5% weight/volume): 4 (1000 to 10,000 colonies countable (thus 10,000 CFU/mL to 100,000 CFU/mL))
- P. vulgaris growth grade, 13 day ([3]; 0.5% weight/volume): 4 (1000 to 10,000 colonies countable (thus 10,000 CFU/mL to 100,000 CFU/mL))
- P. vulgaris growth grade, 30 day ([3]; 0.5% weight/volume): 4 (1000 to 10,000 colonies countable (thus 10,000 CFU/mL to 100,000 CFU/mL))
- P. vulgaris growth grade, 3 day ([3]; 1.25% weight/volume): 3 (100 to 1000 colonies (thus 1000 to 10,000 CFU/mL))
- P. vulgaris growth grade, 13 day ([3]; 1.25% weight/volume): 2 (52 to 100 colonies counted (thus 520 to 1000 CFU/mL))
- P. vulgaris growth grade, 30 day ([3]; 1.25% weight/volume): 0
- P. vulgaris growth grade, 3 day ([3]; 2.5% weight/volume): 4 (1000 to 10,000 colonies countable (thus 10,000 CFU/mL to 100,000 CFU/mL))
- P. vulgaris growth grade, 13 day ([3]; 2.5% weight/volume): 1 (0 to 51 colonies counted (thus 10 to 510 CFU/mL based on 0.1-mL sample))
- P. vulgaris growth grade, 30 day ([3]; 2.5% weight/volume): 0
- P. vulgaris growth grade, 3 day ([3]; 5.0% weight/volume): 0
- P. vulgaris growth grade, 13 day ([3]; 5.0% weight/volume): 0
- P. vulgaris growth grade, 30 day ([3]; 5.0% weight/volume): 0
- B. subtillis growth grade, 3 day ([4]; 0.5% weight/volume): 4 (1000 to 10,000 colonies countable (thus 10,000 CFU/mL to 100,000 CFU/mL))
- B. subtillis growth grade, 14 day ([4]; 0.5% weight/volume): 4 (1000 to 10,000 colonies countable (thus 10,000 CFU/mL to 100,000 CFU/mL))
- B. subtillis growth grade, 30 day ([4]; 0.5% weight/volume): 4 (1000 to 10,000 colonies countable (thus 10,000 CFU/mL to 100,000 CFU/mL))
- B. subtillis growth grade, 3 day ([4]; 1.25% weight/volume): 4 (1000 to 10,000 colonies countable (thus 10,000 CFU/mL to 100,000 CFU/mL))
- B. subtillis growth grade, 14 day ([4]; 1.25% weight/volume): 4 (1000 to 10,000 colonies countable (thus 10,000 CFU/mL to 100,000 CFU/mL))
- B. subtillis growth grade, 30 day ([4]; 1.25% weight/volume): 4 (1000 to 10,000 colonies countable (thus 10,000 CFU/mL to 100,000 CFU/mL))
- B. subtillis growth grade, 3 day ([4]; 2.5% weight/volume): 4 (1000 to 10,000 colonies countable (thus 10,000 CFU/mL to 100,000 CFU/mL))
- B. subtillis growth grade, 14 day ([4]; 2.5% weight/volume): 4 (1000 to 10,000 colonies countable (thus 10,000 CFU/mL to 100,000 CFU/mL))
- B. subtillis growth grade, 30 day ([4]; 2.5% weight/volume): 4 (1000 to 10,000 colonies countable (thus 10,000 CFU/mL to 100,000 CFU/mL))
- B. subtillis growth grade, 3 day ([4]; 5.0% weight/volume): 4 (1000 to 10,000 colonies countable (thus 10,000 CFU/mL to 100,000 CFU/mL))
- B. subtillis growth grade, 14 day ([4]; 5.0% weight/volume): 2 (52 to 100 colonies counted (thus 520 to 1000 CFU/mL))
- B. subtillis growth grade, 30 day ([4]; 5.0% weight/volume): 0
- Grade ([5]; 0.5% (wt/vol), 3 day): 4 (1000 to 10,000 colonies countable (thus 10,000 CFU/mL to 100,000 CFU/mL))
- Grade ([5]; 0.5% (wt/vol), 14 day): 4 (1000 to 10,000 colonies countable (thus 10,000 CFU/mL to 100,000 CFU/mL))
- Grade ([5]; 0.5% (wt/vol), 30 day): 4 (1000 to 10,000 colonies countable (thus 10,000 CFU/mL to 100,000 CFU/mL))
- Grade ([5]; 1.25% (wt/vol), 3 day): 4 (1000 to 10,000 colonies countable (thus 10,000 CFU/mL to 100,000 CFU/mL))
- Grade ([5]; 1.25% (wt/vol), 14 day): 4 (1000 to 10,000 colonies countable (thus 10,000 CFU/mL to 100,000 CFU/mL))
- Grade ([5]; 1.25% (wt/vol), 30 day): 4 (1000 to 10,000 colonies countable (thus 10,000 CFU/mL to 100,000 CFU/mL))
- Grade ([5]; 2.5% (wt/vol), 3 day): 2 (52 to 100 colonies counted (thus 520 to 1000 CFU/mL))
- Grade ([5]; 2.5% (wt/vol), 14 day): 1 (0 to 51 colonies counted (thus 10 to 510 CFU/mL based on 0.1-mL sample))
- Grade ([5]; 2.5% (wt/vol), 30 day): 1 (0 to 51 colonies counted (thus 10 to 510 CFU/mL based on 0.1-mL sample))
- Grade ([5]; 5.0% (wt/vol), 3 day): 0
- Grade ([5]; 5.0% (wt/vol), 14 day): 0
- Grade ([5]; 5.0% (wt/vol), 30 day): 0
- Aeromonas sp growth grade, 3 day ([6]; 0.5% weight/volume): 5 (More than 10,000 colonies estimated (thus more than 100,000 CFU/mL))
- Aeromonas sp growth grade, 14 day ([6]; 0.5% weight/volume): 4 (1000 to 10,000 colonies countable (thus 10,000 CFU/mL to 100,000 CFU/mL))
- Aeromonas sp growth grade, 30 day ([6]; 0.5% weight/volume): 4 (1000 to 10,000 colonies countable (thus 10,000 CFU/mL to 100,000 CFU/mL))
- Aeromonas sp growth grade, 3 day ([6]; 1.25% weight/volume): 4 (1000 to 10,000 colonies countable (thus 10,000 CFU/mL to 100,000 CFU/mL))
- Aeromonas sp growth grade, 14 day ([6]; 1.25% weight/volume): 4 (1000 to 10,000 colonies countable (thus 10,000 CFU/mL to 100,000 CFU/mL))
- Aeromonas sp growth grade, 30 day ([6]; 1.25% weight/volume): 4 (1000 to 10,000 colonies countable (thus 10,000 CFU/mL to 100,000 CFU/mL))
- Aeromonas sp growth grade, 3 day ([6]; 2.5% weight/volume): 4 (1000 to 10,000 colonies countable (thus 10,000 CFU/mL to 100,000 CFU/mL))
- Aeromonas sp growth grade, 14 day ([6]; 2.5% weight/volume): 2 (52 to 100 colonies counted (thus 520 to 1000 CFU/mL))
- Aeromonas sp growth grade, 30 day ([6]; 2.5% weight/volume): 3 (100 to 1000 colonies (thus 1000 to 10,000 CFU/mL))
- Aeromonas sp growth grade, 3 day ([6]; 5.0% weight/volume): 2 (52 to 100 colonies counted (thus 520 to 1000 CFU/mL))
- Aeromonas sp growth grade, 14 day ([6]; 5.0% weight/volume): 0
- Aeromonas sp growth grade, 30 day ([6]; 5.0% weight/volume): 0

Source: patent publication US20100160454A1, “ANTIMICROBIAL AGENTS, COMPOSITIONS AND PRODUCTS CONTAINING THE SAME, AND METHODS OF USING THE COMPOSITIONS AND PRODUCTS” (Eastman Chemical Company, priority 2008, published 2010)
